Test results taken from patent US5264432A, “5-(1-aminoacyl)-5,10-dihydro-11H-dibenzo[b,e](1,4)diazepin-11-ones” (Arzneimittelwerk Dresden G.m.b.H, priority 1989, dated 1993).
Structures can show the parent of a compound that is named as a salt. Where two headings read alike, the source gives them in different places.

Tests used:
[1] = tested on: dogs, 24 hours after a two-step coronary ligature; assay: two-step coronary ligature on the dog (Harris model); format: in vivo; settings: for ectopic contractions in percent/min. / total number of heart contractions/min.: average value; for effective action in minutes (duration of action), Harris dog: i.v. at the effective dose, dogs, 24 hours after two-step coronary ligature
Method: Dose is the effective dose in mg/kg, as well as the duration of action in minutes in dogs, 24 hours after a two-step coronary ligature.

[2] = in vivo; settings: rat, iv, i.v. tail vein, Wistar rats, parentheses = confidence interval p=0.05, read-out: LD50 i.v., acute toxicity of the rat
Method: The data were analyzed by the Probit regression analysis with a confidence interval of p=0.05 (values in parentheses).

[3] = tested on: CaCl2 arrhythmia of the rat; assay: CaCl2 arrhythmia of the rat (antifibrillatory effect); settings: ratio LD50 iv./ED50 iv.
Method: The data is analyzed by the Probit regression analysis with a confidence interval of p=0.05 (values in parentheses).
Q is the ratio of LD50 iv. /ED50 iv. to determine therapeutic breadth range.

[4] = tested on: dogs, 24 hours after a two-step coronary ligature; settings: quinidine, cited from earlier work

| Compound | ectopic contractions in percent/min. ([1]; 5 mins, 0.005 mmol/kg) [percent/min.] | ectopic contractions in percent/min. ([1]; 30 mins, 0.005 mmol/kg) [percent/min.] | ectopic contractions in percent/min. ([1]; 60 mins, 0.005 mmol/kg) [percent/min.] | ectopic contractions in percent/min. ([1]; 120 mins, 0.005 mmol/kg) [percent/min.] | LD50 [2] [mg/kg] | Q = LD50/ED50 (therapeutic breadth) [3] | effective action in minutes (duration of action), Harris dog [1] [min] | also measured |
| --- | --- | --- | --- | --- | --- | --- | --- | --- |
| 5-(4-Diethylamino-butyryl)-5,10-dihydro-11H-dibenzo(b,e)(1,4)-diazepine-11- one [Example 2] | 26 | 24 | 75 | 90 |  |  |  | ectopic contractions in percent/min. ([1]; base, 0.005 mmol/kg): 88 percent/min. |
| CN(C)CCCCCC(=O)N1c2ccccc2NC(=O)c2ccccc21 [Example 1, 5-(6-Dimethylamino-capronyl)-5,10-dihydro-11H-dibenzo(b,e)(1,4)-diazepine-11-one.HCl] | 30 | 47 | 54 | 68 | 85 | 207 | 60 | ectopic contractions in percent/min. ([1]; 180 mins, 0.005 mmol/kg): 80 percent/min. |
| CCN(CC)CCCC(=O)N1c2ccc(Cl)cc2NC(=O)c2ccccc21 [Example 4, 8-Chloro-5-(4-diethylamino-butyryl)-5,10-dihydro-11H-dibenzo(b,e)(1,4)-diazepine-11-one] |  |  |  |  | 71 | 1614 | 30 | total number of heart contractions/min. ([1]; 30 mins., 0.005 mmol/kg): 180 min⁻¹; total number of heart contractions/min. ([1]; 120 mins., 0.005 mmol/kg): 183 min⁻¹ |
| CCN(CC)CCCCCC(=O)N1c2ccc(Cl)cc2NC(=O)c2ccccc21 [Example 6, 8-Chloro-5-(6-diethylamino-capronyl)-5,10-dihydro-11H-dibenzo(b,e)(1,4)-diazepine-11-one] | 20 | 4 | 37 | 76 | 38 | 86 | 60 | total number of heart contractions/min. ([1]; 5 mins., 0.005 mmol/kg): 170 min⁻¹ |
| O=C1Nc2cc(Cl)ccc2N(C(=O)CCCCCCN2CCOCC2)c2ccccc21 [Example 9, 8-Chloro-5-(7-N-morpholino-enanthoyl)-5,10-dihydro-11H-dibenzo(b,e)(1,4)-diazepine-11-one] | 21 | 38 | 42 | 42 | 41 | 256 | 120 | total number of heart contractions/min. ([1]; 120 mins., 0.005 mmol/kg): 156 min⁻¹; ectopic contractions in percent/min. ([1]; 180 mins, 0.005 mmol/kg): 73 percent/min.; ectopic contractions in percent/min. ([1]; 300 mins, 0.005 mmol/kg): 79 percent/min.; total number of heart contractions/min. ([1]; 360 mins., 0.005 mmol/kg): 180 min⁻¹; ectopic contractions in percent/min. ([1]; 360 mins, 0.005 mmol/kg): 89 percent/min. |
| CCN(CC)CC(=O)Nc1c(C)cccc1C [Lidocaine, reference compound] |  |  |  |  |  |  | 15 | ectopic contractions in percent/min. ([1]; 5 mins, 0.02 mmol/kg (5.4 mg/kg)): 34 percent/min.; ectopic contractions in percent/min. ([1]; 30 mins, 0.02 mmol/kg (5.4 mg/kg)): 78 percent/min.; ectopic arrhythmia / ectopy rate (in words) ([1]; dog, Harris): decrease in the ectopic arrhythmia; total number of heart contractions (in words) ([1]; dog, Harris): decrease in the total number of heart contractions |
| C=C[C@H]1C[N@@]2CC[C@H]1C[C@@H]2[C@@H](O)c1ccnc2ccc(OC)cc12 [Quinidine] |  |  |  |  |  |  |  | Harris dog effective dose ([4]; i.v., reference [1] Mokler and Arman 1962): 10.0 mg/kg; effective action in minutes (duration of action), Harris dog ([4]; i.v., reference [1]): 15 min; ectopic arrhythmia (in words) ([4]; reference [1]): decrease in the ectopic arrhythmia; total number of heart contractions (in words) ([4]; reference [1]): decrease in the total number of heart contractions |
